From ChEMBL document CHEMBL3885861, “Open TG-GATES”

Species on record: Rattus norvegicus
Test: Open TG-GATES - Regimen: Daily Repeat
Assay type: toxicity, organism-based, Sprague-Dawley
Parameters: regimen Daily Repeat, gender Male, age 6 weeks
Conditions: in vivo, po, 100 mg/kg, route gavage, dose level Low; for APTT / Bas / Eos / Fbg / Hb / Ht / Lym / MCH / MCHC / MCV / Mono / Neu / PT / Plat / RBC / Ret / WBC: tissue Blood; for KIDNEY_L / KIDNEY_R / KIDNEY_TOTAL: tissue Kidney; for LIVER: tissue Liver; for A/G / ALP / ALT / AST / BUN / CRE / Ca / Cl / DBIL / GLC / IP / K / LDH / Na / PL / RALB / TBIL / TC / TG / TP / gamma-GTP: tissue Plasma

Question: What does the source list for CCN1CCCC1CNC(=O)c1cc(S(N)(=O)=O)ccc1OC (configuration not stated) [SULPIRIDE]?
Answer: TERMINAL_BW (72 h, time 3 day): 231.2 g; APTT (72 h, time 3 day): 17.2 s; Bas (72 h, time 3 day): 0%; Eos (72 h, time 3 day): 1%; Fbg (72 h, time 3 day): 274.6 mg/dL; Hb (72 h, time 3 day): 13.6 g/dL; Ht (72 h, time 3 day): 41.3%; Lym (72 h, time 3 day): 74.8%; MCH (72 h, time 3 day): 20.9 pg; MCHC (72 h, time 3 day): 32.8%; MCV (72 h, time 3 day): 63.7 fL; Mono (72 h, time 3 day): 3%; Neu (72 h, time 3 day): 20.8%; PT (72 h, time 3 day): 13.2 s; Plat (72 h, time 3 day): 122 x10_4/uL; RBC (72 h, time 3 day): 649.2 x10_4/ul; Ret (72 h, time 3 day): 6.5%; WBC (72 h, time 3 day): 95.3 x10_2/uL; KIDNEY_L (72 h, time 3 day): 1 g; KIDNEY_R (72 h, time 3 day): 1 g; KIDNEY_TOTAL (72 h, time 3 day): 2 g; LIVER (72 h, time 3 day): 10.7 g; A/G (72 h, time 3 day): 0.9; ALP (72 h, time 3 day): 1543 IU/L; ALT (72 h, time 3 day): 42.4 IU/L; AST (72 h, time 3 day): 66.4 IU/L; BUN (72 h, time 3 day): 13.6 mg/dL; CRE (72 h, time 3 day): 0.2 mg/dL; Ca (72 h, time 3 day): 11 mg/dL; Cl (72 h, time 3 day): 105.2 meq/L; DBIL (72 h, time 3 day): 0.01 mg/dL; GLC (72 h, time 3 day): 186.8 mg/dL; IP (72 h, time 3 day): 7.4 mg/dL; K (72 h, time 3 day): 4.2 meq/L; LDH (72 h, time 3 day): 70.4 IU/L; Na (72 h, time 3 day): 141 meq/L; PL (72 h, time 3 day): 142.2 mg/dL; RALB (72 h, time 3 day): 2.6 g/dL; TBIL (72 h, time 3 day): 0.058 mg/dL; TC (72 h, time 3 day): 72 mg/dL; TG (72 h, time 3 day): 106.6 mg/dL; TP (72 h, time 3 day): 5.6 g/dL; gamma-GTP (72 h, time 3 day): 1 IU/L; TERMINAL_BW ([…], time 7 day): 265 g; TERMINAL_BW ([…], time 14 day): 328.7 g; TERMINAL_BW ([…], time 28 day): 377.8 g; APTT ([…], time 7 day): 19.5 s; Bas ([…], time 7 day): 0.6%; Eos ([…], time 7 day): 1.2%; Fbg ([…], time 7 day): 289.6 mg/dL; Hb ([…], time 7 day): 14 g/dL; Ht ([…], time 7 day): 42.1%; Lym ([…], time 7 day): 80%; MCH ([…], time 7 day): 20.5 pg; MCHC ([…], time 7 day): 33.2%; MCV ([…], time 7 day): 61.9 fL; Mono ([…], time 7 day): 2.8%; Neu ([…], time 7 day): 14.6%; PT ([…], time 7 day): 13.1 s; Plat ([…], time 7 day): 123.5 x10_4/uL; RBC ([…], time 7 day): 681.6 x10_4/ul; Ret ([…], time 7 day): 5.3%; WBC ([…], time 7 day): 106.6 x10_2/uL; APTT ([…], time 14 day): 20.6 s; Bas ([…], time 14 day): 0%; Eos ([…], time 14 day): 1%; Fbg ([…], time 14 day): 286 mg/dL; Hb ([…], time 14 day): 14.6 g/dL; Ht ([…], time 14 day): 44%; Lym ([…], time 14 day): 75.2%; MCH ([…], time 14 day): 20.6 pg; MCHC ([…], time 14 day): 33.2%; MCV ([…], time 14 day): 62.1 fL; Mono ([…], time 14 day): 3%; Neu ([…], time 14 day): 20%; PT ([…], time 14 day): 13.1 s; Plat ([…], time 14 day): 121.3 x10_4/uL; RBC ([…], time 14 day): 708 x10_4/ul; Ret ([…], time 14 day): 4.5%; WBC ([…], time 14 day): 97.2 x10_2/uL; APTT ([…], time 28 day): 19.8 s; Bas ([…], time 28 day): 0%; Eos ([…], time 28 day): 1.2%; Fbg ([…], time 28 day): 274.2 mg/dL; Hb ([…], time 28 day): 16 g/dL; Ht ([…], time 28 day): 46.9%; Lym ([…], time 28 day): 76.2%; MCH ([…], time 28 day): 19.8 pg; MCHC ([…], time 28 day): 34.2%; MCV ([…], time 28 day): 57.7 fL; Mono ([…], time 28 day): 1.8%; Neu ([…], time 28 day): 19.8%; PT ([…], time 28 day): 13 s; Plat ([…], time 28 day): 110.8 x10_4/uL; RBC ([…], time 28 day): 812.6 x10_4/ul; Ret ([…], time 28 day): 2.2%; WBC ([…], time 28 day): 95.5 x10_2/uL; KIDNEY_L ([…], time 7 day): 1.1 g; KIDNEY_R ([…], time 7 day): 1.1 g; KIDNEY_TOTAL ([…], time 7 day): 2.2 g; KIDNEY_L ([…], time 14 day): 1.2 g; KIDNEY_R ([…], time 14 day): 1.2 g; KIDNEY_TOTAL ([…], time 14 day): 2.4 g; KIDNEY_L ([…], time 28 day): 1.2 g; KIDNEY_R ([…], time 28 day): 1.2 g; KIDNEY_TOTAL ([…], time 28 day): 2.5 g; LIVER ([…], time 7 day): 12.9 g; LIVER ([…], time 14 day): 14.2 g; LIVER ([…], time 28 day): 14.4 g; A/G ([…], time 7 day): 0.9; ALP ([…], time 7 day): 1433 IU/L; ALT ([…], time 7 day): 45.4 IU/L; AST ([…], time 7 day): 66.6 IU/L; BUN ([…], time 7 day): 14.8 mg/dL; CRE ([…], time 7 day): 0.2 mg/dL; Ca ([…], time 7 day): 10.7 mg/dL; Cl ([…], time 7 day): 105.6 meq/L; DBIL ([…], time 7 day): 0.008 mg/dL; GLC ([…], time 7 day): 175.2 mg/dL; IP ([…], time 7 day): 7.5 mg/dL; K ([…], time 7 day): 4.4 meq/L; LDH ([…], time 7 day): 64.2 IU/L; Na ([…], time 7 day): 141.8 meq/L; PL ([…], time 7 day): 145.2 mg/dL; RALB ([…], time 7 day): 2.6 g/dL; TBIL ([…], time 7 day): 0.056 mg/dL; TC ([…], time 7 day): 70.4 mg/dL; TG ([…], time 7 day): 116.4 mg/dL; TP ([…], time 7 day): 5.6 g/dL; gamma-GTP ([…], time 7 day): 1 IU/L; A/G ([…], time 14 day): 0.9; ALP ([…], time 14 day): 1376.8 IU/L; ALT ([…], time 14 day): 38.8 IU/L; AST ([…], time 14 day): 68.5 IU/L; BUN ([…], time 14 day): 15.8 mg/dL; CRE ([…], time 14 day): 0.2 mg/dL; Ca ([…], time 14 day): 11 mg/dL; Cl ([…], time 14 day): 104.5 meq/L; DBIL ([…], time 14 day): 0.015 mg/dL; GLC ([…], time 14 day): 197 mg/dL; IP ([…], time 14 day): 7.6 mg/dL; K ([…], time 14 day): 3.9 meq/L; LDH ([…], time 14 day): 73.5 IU/L; Na ([…], time 14 day): 141.2 meq/L; PL ([…], time 14 day): 145.5 mg/dL; RALB ([…], time 14 day): 2.7 g/dL; TBIL ([…], time 14 day): 0.06 mg/dL; TC ([…], time 14 day): 67.5 mg/dL; TG ([…], time 14 day): 149 mg/dL; TP ([…], time 14 day): 5.8 g/dL; gamma-GTP ([…], time 14 day): 1 IU/L; A/G ([…], time 28 day): 0.8; ALP ([…], time 28 day): 981.6 IU/L; ALT ([…], time 28 day): 36 IU/L; AST ([…], time 28 day): 65.6 IU/L; BUN ([…], time 28 day): 17.2 mg/dL; CRE ([…], time 28 day): 0.3 mg/dL; Ca ([…], time 28 day): 10.5 mg/dL; Cl ([…], time 28 day): 105.2 meq/L; DBIL ([…], time 28 day): 0.008 mg/dL; GLC ([…], time 28 day): 178 mg/dL; IP ([…], time 28 day): 6.4 mg/dL; K ([…], time 28 day): 3.8 meq/L; LDH ([…], time 28 day): 173.6 IU/L; Na ([…], time 28 day): 142.6 meq/L; PL ([…], time 28 day): 136 mg/dL; RALB ([…], time 28 day): 2.8 g/dL; TBIL ([…], time 28 day): 0.068 mg/dL; TC ([…], time 28 day): 63 mg/dL; TG ([…], time 28 day): 112 mg/dL; TP ([…], time 28 day): 6.2 g/dL; gamma-GTP ([…], time 28 day): 1 IU/L
